From ChEMBL document CHEMBL1121951, “Synthesis and evaluation of N-(phenylalkyl)acetohydroxamic acids as potential substrates for N-arylhydroxamic acid N,O-acyltransferase” (1982)
Active and inactive are the calls of the source. The rule behind the calls is not given here.

Legend:
[1] = organism: Cricetulus griseus; experiment: Effect of the compound on hamster hepatic N,O-acyltransferase (AHAT) activity; format: functional
[2] = Effect for methylthio adduct formation at 2 mM concentration; format: functional
[3] = Effect for methylthio adduct formation at 1 mM concentration; format: functional
[4] = organism: Cricetulus griseus; experiment: Effect of the compound on hamster hepatic N-arylhydroxamic acid N,O-acyltransferase activity
[5] = AHAT-catalyzed transacetylation rate at 0.5-1.0 concentration; No effect; format: functional
[6] = Compound inhibit the AHAT-catalyzed transacetylation activity; Active; format: functional
[7] = organism: Rattus norvegicus; experiment: Transacetylation rate in rat hepatic AHAT preparation; format: functional
[8] = tested on: Cricetinae gen. sp.; experiment: Effect for methylthio adduct formation in presence of 0.1 mM N-hydroxy-4-aminobiphenyl and 10 mM N-acetylmethioninein hamster hepatic AHAT preparation at 30 min; format: functional, Cricetulus griseus
[9] = tested on: Cricetinae gen. sp.; experiment: Transacetylation rate in hamster hepatic AHAT preparation; format: functional, Cricetulus griseus
[10] = AHAT-catalyzed transacetylation rate at 0.5-1.0 concentration; format: functional

Activity [4] [%]	SMILES	Reduction [2] [%]	Reduction [3] [%]	Activity [7]	other results
–	CC(=O)N(O)CCc1ccccc1	17	8	–	Activity [1]: < 1%
< 1	CC(=O)N(O)CCCc1ccccc1	–	–	–	–
< 1	CC(=O)N(O)C1CCC(c2ccccc2)CC1 (stereo unspecified)	23	13	–	Activity [5]: inactive
–	CC(=O)N(O)c1ccc(-c2ccccc2)cc1	–	–	4.99 nM/min	Activity [6]: Active; Activity [8]: 120 nM; Activity [9]: 9.14 nM/min; Activity [10]: 10%
< 1	CC(=O)N(O)CCCCc1ccccc1	–	–	0.73 nmol/mg/min	–
< 1	CC(=O)N(O)Cc1ccccc1	–	–	–	–
